Experimental data from patent EP2641901A1, “Novel microbiocides” (Syngenta Participations AG, priority 2012, dated 2013).

Legend:
[1] = test system: Monographella nivalis; test: Monographella nivalis (Microdochium nivale) / liquid culture (foot rot cereals); assay type: cell-based; conditions: 200ppm; liquid culture (PDB potato dextrose broth), 24°C; inhibition of growth determined photometrically 4-5 days after application
Protocol: (§1) Monographella nivalis (Microdochium nivale) / liquid culture (foot rot cereals): Conidia of the fungus from cryogenic storage were directly mixed into nutrient broth (PDB potato dextrose broth). After placing a DMSO solution of test compound into a 96-well microtiter plate at an application rate of 200ppm, the nutrient broth containing the fungal spores was added. The test plates were incubated at 24°C and the inhibition of growth was determined photometrically 4-5 days after application. […] P.01, P.02

[2] = test system: Botryotinia fuckeliana; test: Botryotinia fuckeliana (Botrytis cinerea) / liquid culture (Gray mould); assay type: cell-based; conditions: 200ppm; liquid culture (Vogels broth), 24°C; inhibition of growth determined photometrically 3-4 days after application
Protocol: as §1, with “Botryotinia fuckeliana (Botrytis cinerea)” for “Monographella nivalis (Microdochium nivale)”, “(Gray mould):” for “(foot rot cereals):”, “(Vogels” for “(PDB potato dextrose”, “3-4” for “4-5”

[3] = test system: Blumeria graminis f. sp. tritici; test: Blumeria graminis f. sp. tritici / wheat / leaf disc preventative (Powdery mildew on wheat); assay type: in vivo; conditions: 200ppm, wheat leaf segments cv. Kanzler, inoculated 1 day after application, percent disease control compared to untreated, 6 - 8 days after application
Protocol: Blumeria graminis f. sp. tritici (Erysiphe graminis f. sp. tritici) / wheat / leaf disc preventative (Powdery mildew on wheat): Wheat leaf segments cv. Kanzler were placed on agar in a 24-well plate and sprayed with the formulated test compound diluted in water at an application rate of 200ppm. The leaf disks were inoculated by shaking powdery mildew infected plants above the test plates 1 day after application. The inoculated leaf disks were incubated at 20°C and 60% relative humidity under a light regime of 24 h darkness followed by 12h/12h (dark/light) in a climate chamber and the activity of a compound was assessed as percent disease control compared to untreated when an appropriate level of disease damage appears on untreated check leaf segments (6 - 8 days after application). […] P.01, P.02

[4] = test system: Puccinia recondita f. sp. tritici; test: Puccinia recondita f. sp. tritici / wheat / leaf disc preventative (Brown rust); assay type: in vivo; conditions: 200ppm, wheat leaf segments cv Kanzler, inoculated 1 day after application, percent disease control compared to untreated, 7 - 9 days after application
Protocol: Puccinia recondita f. sp. tritici l wheat / leaf disc preventative (Brown rust): Wheat leaf segments cultivated variety (cv) Kanzler were placed on agar in 24-well plates and sprayed with formulated test compound diluted in water at an application rate of 200ppm. The leaf disks were inoculated with a spore suspension of the fungus 1 day after application. The inoculated leaf segments were incubated at 19°C and 75% relative humidity under a light regime of 12/12 h (light/dark) in a climate cabinet and the activity of a compound was assessed as percent disease control compared to untreated when an appropriate level of disease damage appears in untreated check leaf segments (7 - 9 days after application). […] P.01, P.02

[5] = test system: Magnaporthe grisea; assay type: in vivo; conditions: 200ppm; rice leaf segments cv. Ballila, preventative, inoculated 2 days after application; percent disease control compared to untreated, 5 - 7 days after application
[6] = test system: Glomerella lagenarium; test: Glomerella lagenarium (Colletotrichum lagenarium) / liquid culture (Anthracnose); assay type: cell-based; conditions: 200ppm; liquid culture (PDB potato dextrose broth), 24°C; inhibition of growth measured photometrically 3-4 days after application
Protocol: as §1, with “Glomerella lagenarium (Colletotrichum lagenarium)” for “Monographella nivalis (Microdochium nivale)”, “(Anthracnose) :” for “(foot rot cereals):”, “measured” for “determined”, “3-4” for “4-5”

[7] = test system: Mycosphaerella graminicola; test: Mycosphaerella graminicola (Septoria tritici) / liquid culture (Septoria blotch); assay type: cell-based; conditions: 200ppm; liquid culture (PDB potato dextrose broth), 24°C; inhibition of growth determined photometrically 4-5 days after application
Protocol: as §1, with “Mycosphaerella graminicola (Septoria tritici)” for “Monographella nivalis (Microdochium nivale)”, “(Septoria blotch):” for “(foot rot cereals):”

[8] = test system: Mycosphaerella arachidis; test: Mycosphaerella arachidis (Cercospora arachidicola) / liquid culture (early leaf spot); assay type: cell-based; conditions: 200ppm; liquid culture (PDB potato dextrose broth), 24°C; inhibition of growth determined photometrically 4-5 days after application
Protocol: as §1, with “Mycosphaerella arachidis (Cercospora arachidicola)” for “Monographella nivalis (Microdochium nivale)”, “(early leaf spot):” for “(foot rot cereals):”

[9] = test system: Pyrenophora teres; test: Pyrenophora teres / barley / leaf disc preventative (Net blotch); assay type: in vivo; conditions: 200ppm, barley leaf segments cv Hasso, inoculated two days after application, disease control compared to untreated, 5 - 7 days after application
Protocol: Pyrenophora teres / barley / leaf disc preventative (Net blotch): Barley leaf segments cv Hasso were placed on agar in a 24-well plate and sprayed with formulated test compound diluted in water at an application rate of 200ppm. The leaf segments were inoculated with a spore suspension of the fungus two days after application of the test solution. The inoculated leaf segments were incubated at 20°C and 65% relative humidity under a light regime of 12/12 h (light/dark) in a climate cabinet and the activity of a compound was assessed as disease control compared to untreated when an appropriate level of disease damage appears in untreated check leaf segments (5 - 7 days after application). […] P.01, P.02

[10] = test system: Phaeosphaeria nodorum; test: Phaeosphaeria nodorum / wheat / leaf disc preventative (Glume blotch); assay type: in vivo; conditions: 200ppm, wheat leaf segments cv Kanzler, inoculated 2 days after application, percent disease control compared to untreated, 5 - 7 days after application
Protocol: Phaeosphaeria nodorum (Septorla nodorum) / wheat / leaf disc preventative (Glume blotch): Wheat leaf segments cv Kanzler were placed on agar in a 24-well plate and sprayed with formulated test compound diluted in water at an application rate of 200ppm. The leaf disks were inoculated with a spore suspension of the fungus 2 days after application. The inoculated test leaf disks were incubated at 20°C and 75% relative humidity under a light regime of 12/12 h (light/dark) in a climate cabinet and the activity of a compound was assessed as percent disease control compared to untreated when an appropriate level of disease damage appears in untreated check leaf disks (5 - 7 days after application). […] P.01, P.02

[11] = test system: Puccinia recondita f. sp. tritici; test: Puccinia recondita f. sp. tritici / wheat / leaf disc curative (Brown rust); assay type: in vivo; conditions: 200ppm, wheat leaf segments cv Kanzler, applied 1 day after inoculation, percent disease control compared to untreated, 6 - 8 days after application
Protocol: Puccinia recondita f. sp. tritici / wheat / leaf disc curative (Brown rust): Wheat leaf segments cv Kanzler were placed on agar in 24-well plates. The leaf segments were inoculated with a spore suspension of the fungus. The plates were stored in darkness at 19°C and 75% relative humidity. The formulated test compound diluted in water was applied at an application rate of 200ppm 1 day after inoculation. The leaf segments were incubated at 19°C and 75% relative humidity under a light regime of 12/12 h (light/dark) in a climate cabinet and the activity of a compound was assessed as percent disease control compared to untreated when an appropriate level of disease damage appears in untreated check leaf segments (6 - 8 days after application). […] P.01, P.02

[12] = test system: Pythium ultimum; test: Pythium ultimum / liquid culture (seedling damping off); assay type: cell-based; conditions: 200ppm; liquid culture (potato dextrose broth), 24°C; inhibition of growth determined photometrically 2-3 days after application
Protocol: Pythium ultimum / liquid culture (seedling damping off) Mycelia fragments and oospores of a newly grown liquid culture of the fungus were directly mixed into nutrient broth (potato dextrose broth). After placing a DMSO solution of test compound into a 96-well format microtiter plate at an application rate of 200ppm, the nutrient broth containing the fungal mycelia/spore mixture was added. The test plates were incubated at 24°C and the inhibition of growth was determined photometrically 2-3 days after application. […] P.01, P.02

[13] = test system: Thanatephorus cucumeris; test: Thanatephorus cucumeris (Rhizoctonia solani) / liquid culture (foot rot, damping-off); assay type: cell-based; conditions: 200ppm; liquid culture (PDB potato dextrose broth), 24°C; inhibition of growth determined photometrically 3-4 days after application
Protocol: Thanatephorus cucumeris (Rhizoctonia solani) / liquid culture (foot rot, damping-off): Mycelia fragments of a newly grown liquid culture of the fungus were directly mixed into nutrient broth (PDB potato dextrose broth). After placing a DMSO solution of the test compounds into a 96-well microtiter plate at an application rate of 200ppm, the nutrient broth containing the fungal material was added. The test plates were incubated at 24°C and the inhibition of growth was determined photometrically 3-4 days after application. […] P.01, P.02

CO/N=C1\CCCc2ccc(CCCO/N=C(\C)c3cccc(C)n3)nc21 [P.02]
at least 80%: control of Monographella nivalis [1] | control of Botryotinia fuckeliana [2] | control of Blumeria graminis [3] | control of Puccinia recondita f. sp. tritici [4] | control of Magnaporthe grisea [5] | control of Glomerella lagenarium [6] | control of Mycosphaerella graminicola [7] | control of Mycosphaerella arachidis [8] | control of Pyrenophora teres [9] | control of Phaeosphaeria nodorum [10] | control of Puccinia recondita f. sp. tritici [11] | control of Pythium ultimum [12] | control of Thanatephorus cucumeris [13]
